Data from patent US20200061038A1, “THERAPEUTIC AGENT FOR FIBROSIS AND INHIBITOR OF NUCLEAR TRANSLOCATION OF PHOSPHORYLATED SMAD” (NATIONAL UNIVERSITY CORPORATION CHIBA UNIVERSITY, priority 2016, published 2020).

How the values were obtained:
αSMA [1] = test: αSMA expression (western blot) in TGFβ1-stimulated HFL1 cells; assay type: cell-based, human; conditions: PPMP 3 μM, NB-DNJ 100 μM applied 30 minutes before TGFβ1 (10 ng/mL), 24 hours
Protocol: Human pulmonary fibroblast (HFL1) (ATCC CCL-153) cells were cultured under the conditions of 95% air-5% CO2 and 37° C., using a Dulbecco's Modified Eagle Medium (DMEM) containing 10% fetal bovine serum (FBS), 100 μg/mL streptomycin, and 66.7 μg/mL penicillin.
How an increase in lactosylceramide synthesis activity due to TGFβ1 affects the fibrosing of tissues was examined based on the expression level of αSMA, which is a fibrosing marker protein.

[2] = tested on: lactosylceramide synthase; test: Lactosylceramide synthesis activation test; assay type: cell-based, human; conditions: HFL1 cells; PPMP 3 μM, NB-DNJ 100 μM applied 30 minutes before TGFβ1 (10 ng/mL) stimulation
Protocol: The experiment was conducted by referring to Chatterjee S, Pandey A. The Yin and Yang of lactosylceramide metabolism: implications in cell function. Biochim Biophys Acta. 2008 March; 1780 (3); 370-82.
The sample was put through quantitative determination of protein, and then 300 μM of […], 100 μM of uridine diphosphate galactose (UDP-Gal, containing 7.5×10^5 dpm of [^3H] UDP-Gal), and reaction buffer, were added to 50 μL of sample, to a final volume of 100 μL/tube. This reaction sample was incubated for 2 hours at 37° C., and finally 50 mM of KCl and 25 mM of EDTA were added to stop the reaction. Thereafter, lipids were extracted from the sample according to the Bligh-Dyer method, and all lipids were expanded using TLC (chloroform:methanol:water=100:42:6). The separated lipids were stained using iodine gas, silica gel at the same position as the lactosylceramide target was scraped off, and its radiation activity was measured using a liquid scintillation counter (Aloka LSC-5100 manufactured by Hitachi-Aloka Medical), and then the amount of synthesized lactosylceramide was calculated. It should be noted that, for the background sample(control), a sample with zero incubation time was used.
Whether or not TGFβ1 treatment would increase the synthesis of lactosylceramide was examined in vitro. […]

Smad2/3 = conditions: HFL1 cells; PPMP 3 μM applied 30 minutes before TGFβ1 (10 ng/mL) treatment; over time
Protocol: HFL1 cells were inoculated onto a six-well plate by 1.0×10^5 cells/well, and then cultured in 2.0 mL of DMEM containing 10% FBS, to achieve 70% confluence. The cells were washed using Hanks' balanced salt solution (HBSS) containing 0.1% bovine serum albumin (BSA) (4.2 mM NaHCO3, 137 mM NaCl, 5.36 mM KCl, 0.4 mM MgSO4.7H2O, 0.34 mM Na2HPO4.12H2O, 5.55 mM glucose, 0.44 mM KH2PO4, 0.72 mM CaCl2.H2O, pH=7.4), and then cultured in a DMEM containing 0.1% BSA for 48 hours without serum. […]
The cells were crushed according to the vortex method, centrifuged under the conditions of 15000 rpm and 4° C. for 30 minutes, and the supernatant was taken as a sample. Quantitative determination of protein was performed according to the Bradford method, and a specified amount of protein was separated by SDS-polyacrylic amide gel electrophoresis. […]
Thereafter, the PVDF film was soaked in an ECL solution and fluorometric detection was performed using an image capture/analysis system (ChemiDocMP System manufactured by Bio-Rad). The detected bands were converted to numerical values using image processing software (ImageJ).

Smad2 = Smad2 nuclear localization (immunofluorescent staining, confocal) in HFL1 cells; assay type: cell-based, human; conditions: pretreatment PPMP 3 μM or NB-DNJ 100 μM, TGFβ1 10 ng/mL, 3 hours
Protocol: For immunostaining of Smad and phosphorylated Smad, ribonuclease A (RNase, Worthington Biochemical) (200 μg/mL, room temperature, 30 minutes) and propidium iodide (PI, Cayman Chemical) (20 μg/mL, room temperature, 30 minutes) were applied to stain the nucleus, and the stained images were observed using a confocal microscope (FV500 manufactured by Olympus).
When localization of Smad2/3 was observed, on the other hand, Smad2/3 accumulated in the nucleus in 3 hours after the single stimulation of TGFβ1 (10 ng/mL).

PKCδ = test: Translocation of PKCδ into the cellular membrane in HFL1 cells; assay type: cell-based, human; conditions: PPMP 3 μM, Rottlerin 1 μM applied beforehand, two hours after TGFβ1 10 ng/mL
Protocol: HFL1 cells were inoculated onto a 3.5-cm glass-bottom dish by 1.0×10^4 cells/dish, and then cultured in 2.0 mL of DMEM containing 10% FBS, to achieve 70% confluence. The cells were washed in HBSS containing 0.1% BSA, and then cultured in DMEM containing 0.1% BSA for 48 hours without serum.
Thereafter, the medium was replaced by a DMEM containing 0.1% BSA, and stimulation was given for a specified period using each reagent (each inhibitor was applied 30 minutes before the stimulant), after which each sample was fixed with 4% paraformaldehyde (PFA) at 4° C. for 15 minutes. Thereafter, as deemed appropriate, the sample was permeabilized (0.3% saponin, room temperature, 1 hour) and blocked (3% BSA, room temperature, 1 hour), with a primary antibody applied overnight at 4° C., and a secondary antibody applied for 1 hour at room temperature. For immunostaining of Smad and phosphorylated Smad, ribonuclease A (RNase, Worthington Biochemical) (200 μg/mL, room temperature, 30 minutes) and propidium iodide (PI, Cayman Chemical) (20 μg/mL, room temperature, 30 minutes) were applied to stain the nucleus, and the stained images were observed using a confocal microscope (FV500 manufactured by Olympus).
In general, activation of PKC is observed in the form of its translocation into the cellular membrane; accordingly, involvement of lactosylceramide was examined using the translocation of PKCδ into the cellular membrane as an indicator.

[3] = tested on: patient's pulmonary fibroblast cells; test: αSMA expression (western blot) in patient's pulmonary fibroblast cells; assay type: cell-based, human; conditions: PPMP 0.5 μM, 1.0 μM; NB-DNJ 100 μM, 200 μM; cultured 48 hours
Protocol: Post-operative lung tissues were obtained from a lung transplant patient who was suffering from a serious case of pleuroparenchymal fibroelastosis.
The lung tissues were shredded, rinsed with phosphate-buffered saline (PBS), and then incubated at 37° C. for 15 minutes under gentle shaking, using 1 mg/ml collagenase type I (Worthington, Lakewood, N.J., USA), 0.5 mg/ml disperse (Life Technologies), 2 U/ml DNase (QIAGEN, Valencia, Calif., USA), 0.1 mg/ml streptomycin, and 100 U/ml penicillin.
The tissues were washed twice in DMEM, and then transferred into an 80-cm^2 culture flask and cultured at 37° C. in 5% CO2.
Cell growth was monitored every week, with the culture medium changed every four days. Once the flask reached confluent cultures, the cells were collected as cells at passage 0, and the cells obtained at passage 3 were used in the experiment as the patient's pulmonary fibroblast cells.
Patient's pulmonary fibroblast cells were cultured under the conditions of 95% air-5% CO2 and 37° C., using a Dulbecco's Modified Eagle Medium (DMEM) containing 10% fetal bovine serum (FBS), 100 μg/mL streptomycin, and 66.7 μg/mL penicillin.

αSMA [4] = test: Bleomycin-induced pulmonary fibrosis mouse model: lung αSMA western blot; assay type: in vivo, C57BL/6J mice; conditions: mice; 20 mg/kg NB-DNJ into the bronchial tubes on days 7, 8, 9 after bleomycin; lungs on 14th day
Protocol: 50 μL of 3 mg/kg bleomycin hydrochloride/saline solution (Nippon Kayaku Co., Ltd.) was administered through the bronchial tubes to C57BL/6J mice (male, 8 to 12 weeks old) under tribromoethanol-ether anesthesia, to prepare mouse models for pulmonary fibrosis. 50 μL of saline solution was administered in the same manner to a control group not treated with bleomycin hydrochloride.
Seven, eight and nine days after the administration of bleomycin, 50 μL of 20 mg/kg NB-DNJ/saline solution was administered into the bronchial tubes of the mice under tribromoethanol-ether anesthesia. 50 μL of saline solution was administered into the bronchial tubes to a control group of mice not administered with NB-DNJ.
On the 14th day after the administration of bleomycin, each mouse was subjected to thoracotomy under deep ether anesthesia, and its entire body was perfused with PBS from the left ventricle using a syringe needle, while blood was removed from the lungs through the right ventricle, and the lungs were removed.
Thereafter, the tissues were further pulverized using a homogenizer, and centrifuged at 15000 rpm and 4° C. for 30 minutes.

[5] = tested on: bleomycin-induced fibrosing of the lung; test: Bleomycin-induced pulmonary fibrosis mouse model: hematoxylin eosin-stained lung slices; assay type: in vivo, C57BL/6J mice; conditions: mice, lungs on 14th day
Protocol: 50 μL of 3 mg/kg bleomycin hydrochloride/saline solution (Nippon Kayaku Co., Ltd.) was administered through the bronchial tubes to C57BL/6J mice (male, 8 to 12 weeks old) under tribromoethanol-ether anesthesia, to prepare mouse models for pulmonary fibrosis. 50 μL of saline solution was administered in the same manner to a control group not treated with bleomycin hydrochloride. Seven, eight and nine days after the administration of bleomycin, 50 μL of 20 mg/kg NB-DNJ/saline solution was administered into the bronchial tubes of the mice under tribromoethanol-ether anesthesia. 50 μL of saline solution was administered into the bronchial tubes to a control group of mice not administered with NB-DNJ. For 7 to 13 consecutive days after the administration ofbleomycin, 0.2 mL of 600 mg/kg NB-DNJ/saline solution was orally administered daily (once a day). As control group mice which were not administrated with NB-DNJ, 0.2 mL of saline solution was orally administered. On the 14th day after the administration of bleomycin, each mouse was subjected to thoracotomy under deep ether anesthesia, and its entire body was perfused with PBS from the left ventricle using a syringe needle, while blood was removed from the lungs through the right ventricle, and the lungs were removed. The lungs were soaked in 4% paraformaldehyde and fixed overnight at 4° C. […]

Molecule	increase in the αSMA expression level due to TGFβ1 (αSMA [1])	activity of the lactosylceramide synthase after TGFβ1 stimulation [2]	phosphorylation levels of Smad2/3 (Smad2/3)	accumulation of Smad2 in the nucleus due to TGFβ1 (Smad2)	translocation of PKCδ into the cellular membrane due to TGFβ1 (PKCδ)	expression of αSMA in patient's pulmonary fibroblast cells [3]	expression of αSMA in lung in the presence of bleomycin (αSMA [4])	bleomycin-induced fibrosing of the lung, bronchial-tube-administration ([5]; 20 mg/kg NB-DNJ into the bronchial tubes on days 7, 8, 9 after bleomycin)	bleomycin-induced fibrosing of the lung, oral administration ([5]; 600 mg/kg NB-DNJ orally once a day, days 7 to 13 after bleomycin)
1-phenyl-2-hexadecanoyl amino-3-morpholino-1-propanol [PPMP]	suppressed increase in the αSMA expression level	suppressed the activity of the lactosylceramide synthase significantly	did not change the phosphorylation levels of Smad2/3 over time	suppressed the accumulation of Smad2 in the nucleus	translocation of PKCδ into the cellular membrane was suppressed	the expression of αSMA is suppressed			
CCCCN1C[C@H](O)[C@@H](O)[C@H](O)[C@H]1CO [NB-DNJ, N-butyl deoxynojirimycin]	suppressed increase in the αSMA expression level	suppressed the activity of the lactosylceramide synthase significantly		suppressed the accumulation of Smad2 in the nucleus		the expression of αSMA is suppressed	the expression of αSMA is suppressed	suppress the bleomycin-induced fibrosing of the lung	suppress the bleomycin-induced fibrosing of the lung
